# In patent US10633379B2, “Bromodomain inhibitors” (AbbVie Inc., priority 2016, dated 2020):
# pKi: −log10 of the molar value.
# Legend:
# BRD4 (BDI_K57-E168) = BRD4 (BDI_K57-E168) (Homo sapiens (Human), UniProt O60885); assay: TR-FRET bromodomain binding assay, BRD4 BDI; details: mean Ki, calculated from IC50, probe Kd and probe concentration
# Method: (§1) A time-resolved fluorescence resonance energy transfer (TR-FRET) assay was used to determine the affinities of compounds of the Examples listed in Table 1 for each bromodomain of BRD4. His-tagged first (BDI: amino acids K57-E168) and second (BDII: amino acids E352-M457) bromodomains of BRD4 were expressed and purified. An Alexa647-labeled BET-inhibitor was used as the fluorescent probe in the assay.
# (§2) Compound dilution series were prepared in DMSO via an approximately 3-fold serial dilution. Compound dilutions were added directly into white, low-volume assay plates (Perkin Elmer Proxiplate 384 Plus#6008280) using a Labcyte Echo in conjunction with Labcyte Access and Thermo Multidrop CombinL robotics. Compounds were then suspended in eight microliters (μL) of assay buffer (20 mM Sodium Phosphate, pH 6.0, 50 mM NaCl, 1 mM Ethylenediaminetetraacetic acid disodium salt dihydrate, 0.01% Triton X-100, 1 mM DL-Dithiothreitol) containing His-tagged bromodomain, Europium-conjugated anti-His antibody (Invitrogen PV5596) and Alexa-647-conjugated probe.
# (§3) The final concentration of 1× assay mixture contained 2% DMSO, 12 nM His tagged BRD4 (BDI_K57-E168) and 100 nM probe or 4 nM His tagged BRD4 (BDII_E352-M457) and 30 nM probe, and 1 nM Europium-conjugated anti-His-tag antibody, and compound concentrations in the range of: 49.02 μM-0.61 nM or 0.98 μM-0.15 nM.
# (§4) After a one-hour equilibration at room temperature, TR-FRET ratios were determined using an Envision multilabel plate reader (Ex 340, Em 495/520).
# (§5) TR-FRET data were normalized to the means of 24 no-compound controls (“high”) and 8 controls containing 1 μM un-labeled probe (“low”). Percent inhibition was plotted as a function of compound concentration and the data were fit with the 4 parameter logistic equation to obtain IC50s. Inhibition constants (Ki) were calculated from the IC50s, probe Kd and probe concentration.
# BRD4 (BDII_E352-M457) = BRD4 (BDII_E352-M457) (Homo sapiens (Human), UniProt O60885); assay: TR-FRET bromodomain binding assay, BRD4 BDII; details: mean Ki, calculated from IC50, probe Kd and probe concentration
# Method: as §1, §2, §3, §4, §5
SMILES,pKi (BRD4 (BDI_K57-E168)),pKi (BRD4 (BDII_E352-M457))
"CCNC(=O)c1cc2c(-c3cc([C@@](C)(O)CO)ccc3Oc3c(C)cccc3C)cn(C)c(=O)c2[nH]1 (single isomer, unassigned) [Example 68]",6.47,8.66
"CCNC(=O)c1cc2c(-c3cc([C@](C)(O)CO)ccc3Oc3c(C)cccc3C)cn(C)c(=O)c2[nH]1 (single isomer, unassigned) [Example 69, 4-{5-[(25)-1,2-dihydroxypropan-2-yl]-2-(2,6-dimethylphenoxy)phenyl}-N-ethyl-6-methyl-7-oxo-6,7-dihydro-1H-pyrrolo[2,3-c]pyridine-2-carboxamide]",6.30,8.64
"CCNC(=O)c1cc2c(-c3cc(S(C)(=O)=O)ccc3Oc3ccc(F)cc3F)cn(C)c(=O)c2[nH]1 [Compound Y, 4-[2-(2,4-difluorophenoxy)-5-(methylsulfonyl)phenyl]-N-ethyl-6-methyl-7-oxo-6,7-dihydro-1H-pyrrolo[2,3-c]pyridine-2-carboxamide, reference compound]",7.67,8.88
"Cn1cc(-c2cc(CO)ccc2Oc2ccccc2)c2cc[nH]c2c1=O [Compound Z, 4-[5-(hydroxymethyl)-2-phenoxyphenyl]-6-methyl-1,6-dihydro-7H-pyrrolo[2,3-c]pyridin-7-one, reference compound]",7.16,7.81
"CCNC(=O)c1cc2c(-c3cc(C(C)(C)O)cnc3Oc3c(C)cccc3C)cn(C)c(=O)c2[nH]1 [Example 1, 4-[2-(2,6-dimethylphenoxy)-5-(2-hydroxypropan-2-yl)pyridin-3-yl]-N-ethyl-6-methyl-7-oxo-6,7-dihydro-1H-pyrrolo[2,3-c]pyridine-2-carboxamide]",6.34,8.64
"CCNC(=O)c1cc2c(-c3cc(C(O)(CC)CC)cnc3Oc3c(C)cccc3C)cn(C)c(=O)c2[nH]1 [Example 2, 4-[2-(2,6-dimethylphenoxy)-5-(3-hydroxypentan-3-yl)pyridin-3-yl]-N-ethyl-6-methyl-7-oxo-6,7-dihydro-1H-pyrrolo[2,3-c]pyridine-2-carboxamide]",6.66,8.52
"CCNC(=O)c1cc2c(-c3cc(C(C)(C)O)ccc3Oc3c(C)cccc3C)cn(C)c(=O)c2[nH]1 [Example 3, 4-[2-(2,6-dimethylphenoxy)-5-(2-hydroxypropan-2-yl)phenyl]-N-ethyl-6-methyl-7-oxo-6,7-dihydro-1H-pyrrolo[2,3-c]pyridine-2-carboxamide]",6.39,8.96
"CCNC(=O)c1cc2c(-c3cc(C4(O)CC=CC4)cnc3Oc3c(C)cccc3C)cn(C)c(=O)c2[nH]1 [Example 4, 4-[2-(2,6-dimethylphenoxy)-5-(1-hydroxycyclopent-3-en-1-yl)pyridin-3-yl]-N-ethyl-6-methyl-7-oxo-6,7-dihydro-1H-pyrrolo[2,3-c]pyridine-2-carboxamide]",6.67,8.51
"CCNC(=O)c1cc2c(-c3cc(C4(O)CC=CC4)ccc3Oc3c(C)cccc3C)cn(C)c(=O)c2[nH]1 [Example 5, 4-[2-(2,6-dimethylphenoxy)-5-(1-hydroxycyclopent-3-en-1-yl)phenyl]-N-ethyl-6-methyl-7-oxo-6,7-dihydro-1H-pyrrolo[2,3-c]pyridine-2-carboxamide]",6.73,8.80
"CCNC(=O)c1cc2c(-c3cc(C4(O)CCCC4)cnc3Oc3c(C)cccc3C)cn(C)c(=O)c2[nH]1 [Example 6, 4-[2-(2,6-dimethylphenoxy)-5-(1-hydroxycyclopentyl)pyridin-3-yl]-N-ethyl-6-methyl-7-oxo-6,7-dihydro-1H-pyrrolo[2,3-c]pyridine-2-carboxamide]",6.56,8.64
"CCNC(=O)c1cc2c(-c3cc(C(O)(CC)c4ccccc4)cnc3Oc3c(C)cccc3C)cn(C)c(=O)c2[nH]1 (stereo not shown) [Example 7, 4-[2-(2,6-dimethylphenoxy)-5-(1-hydroxy-1-phenylpropyl)pyridin-3-yl]-N-ethyl-6-methyl-7-oxo-6,7-dihydro-1H-pyrrolo[2,3-c]pyridine-2-carboxamide]",6.20,8.39
